Test results published in patent US4863899A, “Biologically active polypeptides” (priority 1987, dated 1989).
pIC50: −log10 of the molar value.

Key:
EGF receptor = target: T1, EGF receptor (Homo sapiens, UniProt P00533); assay: 125I-EGF radioreceptor assay on formalin-fixed A431 human carcinoma cells; assay type: binding
T1 construct: subconfluent monolayers of formalin-fixed A431 human carcinoma cells; endogenous in cells; host or cells: A431 human carcinoma cells, formalin-fixed
Description: The fixed cells were washed twice with 0.5 ml of binding buffer (Dulbecco's modified Eagle's medium containing 1 mg/ml of bovine serum albumin and 50 mM 2-[bis(2-hydroxyethyl)amino]ethanesulfonic acid, pH 6.8).
TGF was quantitated in a radioreceptor assay based on receptor cross-reactivity with mouse submaxillary gland epidermal growth factor (mEGF).

[1] = system: normal rat kidney fibroblasts, clone 49F; assay: Soft agar growth assay; assay type: cell-based; conditions: tested with up to 10 μg
Description: The assay for colony growth in soft agar, using normal rat kidney fibroblasts, clone 49F, was performed as reported in Todaro et al. (1980) Proc. Natl. Acad. Sci. USA 77, pp. 5258-5262. Lyophilized samples to be tested were reconstituted in 0.5 ml of Dulbecco's modified Eagle's medium, supplemented with 10% calf serum. 1.5 ml of 0.5% (w/v) agar (Difco) in the supplemented medium and 0.5 ml of supplemented medium containing 2.3×10^4 cells were added. 2.3 ml of the resultant mixture were pipetted on a 2-ml base layer (0-5% agar in supplemented medium) in 60-mm Petri dishes (Falcon). The cells were incubated at 37° C. in a humidified 5% CO2 /95% air atmosphere. The assay was read unfixed and unstained at 5 days and at 10-14 days.

[2] = system: 125I-labeled rat TGF binding to EGF receptors of A431 cells; assay: Binding of 125I-labeled rat TGF to A431 cells; design: species or system human
Description: was synthesized using the solid-phase technique of Ohgak et al. (1983) Journal of Immunol. Meth. 57, pp. 171-184. This oligopeptide was then coupled to keyhole limpet hemocyanin in accordance with the procedure of Baron et al. (1982) Cell 28, pp. 395-404, and used to immunize rabbits (Baron et al. (1982) Cell 28, pp. 395-404) and sheep (Lerner (1982) Nature 299, pp. 592-596). Antisera were assayed against peptide by a peroxidase-linked immunoassay (Kirkegaard and Perry Laboratories, Gaithersberg, Md.) and against homogeneous rat TGF (purified according to Example II above), by immunoprecipitation (Bister et al. (1980) J. Virol. 36, pp. 617-621) and Western blotting techniques (Burnett (1981) Analyt. Biochem. 112, pp. 195-203). Binding of ^125 I-labeled rat TGF and mouse EGF (Bethesda Research Labs, Bethesda, Md.) to A431 cells grown in 96-well microtiter plates was as described in Pross et al. (1977) Proc. Natl. Acad. Sci. U.S.A. 74, pp. 3918-3921.
Human epidermoid carcinoma A431 cells have in excess of 10^6 EGF receptors per cell (Fabricant et al. (1977) Proc. Natl. Acad. Sci. U.S.A. 74, pp. 565-569). TGF competes with EGF for binding to these receptors. Binding of ^125 I-labeled rat TGF to these cells was blocked by an excess of unlabeled EGF and by antiserum to peptide. […]

[3] = system: antiserum against peptide III; assay: Radioimmunoassay, inhibition of precipitation of 125I-peptide III; assay type: binding, rabbit
Description: Rabbits were immunized by subcutaneous injection of 1 mg of conjugate injected subcutaneously at four separate sites. Two booster injections were administered at bi-weekly intervals following the initial injection. The serum used in this study was collected eighty days after the initial injection. An immunoglobulin fraction of this serum was prepared by ammonium sulfate precipitation. The product of antibodies specific for immunizing peptide was monitored with a solid phase enzyme-linked immunoabsorbent assay.
Reactants were mixed in a final volume of 50 microliters of a solution containing: 20 mM sodium phosphate, at pH 7.4; 200 mM NaCl: 40 mM dithiothreitol; 0.1% (w:v) BSA; 0.1% (w:v) NaN3 : ^125 I-peptide III; (10^4 cpm); antiserum at a final dilution of 1/15,000; and other additions, as specified. The reaction was initiated by the addition of antiserum and continued at 23° C. for 90 minutes. An equal volume of 10% formalin-fixed Staphalococcus A (Pansorbin, Calbiochem) was then added and incubation was continued for an additional 30 minutes at 23° C. The immunoadsorbant was removed by sedimentation through a cushion of 10% (w:v) sucrose and the amount of bound ^125 I-peptide III was determined using a gamma counter. Under these conditions, approximately 25% of ^125 I-peptide was bound by antibody in the absence of competitor. The amount of bound peptide III was corrected for non-specific binding measured in the absence of antibody (less than 5% of the total) and expressed as a percentage of maximal binding. Concentrations of competitors were expressed as the amount of peptide III required to give an equivalent inhibition of precipitation.

anti-KLH-peptide 1 IgG = assay: Solid phase RIA, 125I anti-KLH-peptide 1 IgG on BSA-peptide 1; assay type: binding, rabbit
Description: TGF peptide 1 was coupled to keyhole limpet hemocyanin (KLH) or bovine serum albumin (BSA) by thiol/maleimide linkage (King et al. (1979) J. Immunol. Methods 28, pp. 201-206). Carrier-peptide complexes were purified by gel filtration. An average of 60 moles peptide/mole KLH and 20 moles peptide/mole BSA was achieved. Rabbits were immunized with the KLH-peptide 1 conjugate by multiple subcutaneous (s.c.) and intramuscular (i.m.) injections of 2 mg protein in complete Freund's adjuvant. Rabbits were boosted s.c. every two weeks with the immunogen in incomplete Freund's adjuvant. The IgG fraction of the antiserum after 5 boosts was used for immunoassays and radiolabeled using Na^125 I (NEN) and Enzymobeads (Bio-Rad) to 4×10^5 cpm/μg protein. Polyvinyl chloride 96-well plates (Costar) were coated with 200 μg/mL BSA-peptide 1 conjugate and countercoated with 10% normal rabbit serum in phosphate-buffered saline. Plates were incubated for 4 hours at 37° C. with [^125 I]anti-KLH-peptide 1 IgG (50,000 cpm/well) in the presence or absence of inhibitors, washed and individual wells were counted.

normal rat kidney cells = assay type: cell-based; conditions: on a ng equivalent basis
second degree burns = assay: Wound healing test on second degree burns (Example VI); assay type: in vivo, piglets; conditions: Pig 3, right side, 9 days post-burn
fetal rat long bones = assay: Bone resorption in vitro, 45Ca release; assay type: cell-based
Description: Synthetic rat TGF was prepared as described above in Example V. Purity of the protein was confirmed by sodium dodecyl sulfate-polyacrylamide gel electrophoresis, amino acid analysis, and reverse phase high-performance liquid chromatography. The biological activity of TGF preparations and synthetic TGF was monitored by means of an EGF radioreceptor assay. (Todaro et al. (1976) Nature 264, 26.) Bone resorption was assessed by measuring the release of ^45 Ca from previously labeled fetal rat long bones. Pregnant rats at the 18th day of gestation were injected with 200 μCi of ^45 Ca. (Raisz (1975) J. Clin. Invest. 44, 103.) The mothers were killed on the 19th day of gestation, and the fetuses were removed. The mineralized shafts of the radii and ulnae were dissected free of surrounding tissue and cartilage and placed in organ culture. The bones were incubated in BGJb medium (Irvine Scientific) for 24 hours at 37° C. in a humidified atmosphere of 5 percent of CO2 and 95 percent air to allow for the exchange of loosely complexed ^45 Ca. The bones were then cultured for 48 to 120 hours in BGJb medium supplemented with 5 percent fetal calf serum (KC Biologicals) containing control or test substances. […] Statistical significance was determined with Student's t test for unpaired data.

antibody to TGF peptide = assay type: binding; conditions: 125I-labeled TGF peptide

Substance | amount required to inhibit EGF binding by 50% (EGF receptor; 0.4 ng 125I-EGF, 1 h at 22° C.) | pIC50 (EGF receptor; 125I-EGF at 0.33 nM (Example XI), read-out: concentration giving half-maximal inhibition of 125I-EGF binding) | stimulation of growth in soft agar [1] | binding of 125I-labeled rat TGF to A431 cells [2] | highest concentration without inhibition of precipitation of 125I-peptide III [3] | Relative Inhibitory Activity ([3]; half-maximal inhibitory concentration relative to peptide III, standard RIA, > = highest concentration tested) | inhibition of antibody reaction with BSA-TGF peptide (anti-KLH-peptide 1 IgG) | colonies in soft agar (normal rat kidney cells) | increase in DNA synthesis relative to unstimulated serum deprived cells (mink fibroblasts) | approximate percentage of burn epithelialized (second degree burns; 0.1 μg/ml in Silvadene) | approximate percentage of burn epithelialized (second degree burns; 0.5 μg/ml in Silvadene) | approximate percentage of burn epithelialized (second degree burns; 10 μg/ml in Silvadene) | inhibition of precipitation of 125I-peptide III, in words ([3]; compared with peptide III) | bone resorption during the first 48 hours of bone culture (fetal rat long bones) | effective concentrations for bone resorption compared with EGF (fetal rat long bones) | time required to stimulate bone resorption (fetal rat long bones) | concentrations that stimulated bone resorption (fetal rat long bones; three separate experiments (Example XIII)) | concentrations that stimulated bone resorption (fetal rat long bones; three separate experiments (Example XIV)) | antigen concentration for 50% displacement of antigen from antibody (antibody to TGF peptide)
EGF: mouse submaxillary gland epidermal growth factor | 1.1 ng | 9.30 to 9.52 | does not stimulate growth | blocked | greater than 1 μM | > 1500 | did not cause significant inhibition | 120 colonies | 59% |  |  |  |  |  |  |  |  |  | 
synthetic rTGF: rat TGF of the formula of Example II made by stepwise solid-phase synthesis, purified to homogeneity |  |  |  |  |  |  | slightly less | 154 colonies |  | 90% | 65% | 90% | equally effective | no significant bone resorption | about one order of magnitude less than EGF | at least 72 hours | greater than 2 ng EGF equivalents/ml | greater than 2 ng of EGF equivalents per milliliter | 0.2-0.3 ng equivalents of EGF
